Experimental data taken from patent US11730717B1, “Melanin-inspired antimicrobial” (The Board of Regents for the Oklahoma Agricultural and …, priority 2020, dated 2023).
Read-outs that look alike come from different tables or passages of the source.

Assays:
[1] = tested on: Pasteurella moltocida P-1581; assay: Disc agar diffusion assay; assay type: cell-based; details: Group 1: Gram-negative organisms
Method: (§1) As a further test of an embodiment, the antibacterial properties of EIPE-1 were tested across a large panel of organisms. EIPE-1 was dissolved in DMSO, impregnated onto sterile filter paper disks, and DMSO served as the untreated control according to the following procedure: • 1. Prepare a 2.5 μg/μL stock solution of EIPE-1 by micro pipetting 200 μL of DMSO into 2.0 mL Eppendorf Tube containing 0.5 mg of EIPE-1. Dissolve with vortex agitation and store at 4° C. • 2. Use forceps to pick up sterile 6.0 mm blank paper disks. Make sure to touch only one side of disc as lightly as possible. While holding blank paper disc, deliver 10.0 μL of the 2.5 μg/μL EIPE-1 solution by touching the micropipette tip to the center of the blank paper disc. Lean the impregnated disc up against the side of a small sterile glass petri dish. Follow same procedure for DMSO control. Allow disks several hours to dry under flowing sterile air. • 3. Inoculate starter cultures using cells from working culture cultivated on Mueller-Hinton Agar (MHA; Difco Laboratories). Starters consist of ˜20 mL of Mueller-Hinton Broth (MHB; Difco Laboratories) in 125-mL culture flasks. Incubate starter cultures in an Excella E24 Benchtop Incubator Shaker (New Brunswick Scientific Co., Inc., Edison, N.J., USA) at 37° C. and 180 rpm for 15-18 hours. • 4. Pour at least 5.0 mL of NMB into 18-mL Kimax tubes. Use a Pasteur pipette to deliver enough of the starter culture cell suspension to reach an optical density (OD620) of 0.025 (Spectronic™ 20 optical spectrophotometer; Thermo Electron Corp., Madison, Wis., USA). Ensure that both transmittance and absorbance are set to 0.0 using a blank NMB sample. Incubate in rotary shaking incubator at 37° C. and 180 rpm until optical density reaches 0.1. • 5. Deliver 100 μL of test culture to the middle of a small 100 mm×15 mm Petri dish containing ˜⅛ in thickness of MHA. • 6. Saturate a sterile cotton swab with MHB by dipping the cotton swab into KIMAX® tube with MHB and then touch the swab to the north, south, east, and west side of the KIMAX® tube to remove excess broth. • 7. Streak the inoculum as follows: • a. Start in the center and make four straight lines to the 12, 3, 6, and 9 o'clock position on the petri dish. • b. Start at the 12 o'clock position and streak side to side all the way down the plate to the 6 o'clock position. […] Rotate the petri dish 90° and complete the same side to side streak all the way down the petri dish. • d. Complete step c. twice more. • e. Rotate petri dish 45° and complete the side-to-side streak. • f. Rotate petri dish 90° and complete the side-to-side streak. • 8. Use sterile forceps to transfer the DMSO control paper disc onto the agar surface and pat the paper disc down to ensure flush contact. Use the same technique to deliver EIPE-1 paper disc. • 9. Place petri dish at 4° C. for 1.0 hour to allow EIPE-1 diffusion in the absence of growth. • 10. Incubate petri dish at 37° C. for 18 hours. • 11. Observe for zones of growth inhibition surrounding disks. Measure diameter with electronic caliper and subtract 6.0-mm disc diameter. Results • a) Each organism was initially tested once to serve as a screen.

[2] = tested on: Serratia rubidaea ATCC 27593; assay: Disc agar diffusion assay; assay type: cell-based; details: Group 1: Gram-negative organisms
Method: as §1

[3] = tested on: Staphylococcus aureus SFL 64; assay: Disc agar diffusion assay; assay type: cell-based
Method: as §1

Serratia marcescens 8100 = assay: Disc agar diffusion assay; assay type: cell-based; details: Group 1: Gram-negative organisms
Method: as §1

Bacillus cereus = assay: Disc agar diffusion assay; assay type: cell-based
Method: as §1

[4] = tested on: Serratia fonticola ATCC 9844; assay: Disc agar diffusion assay; assay type: cell-based; details: Group 1: Gram-negative organisms
Method: as §1

Lactococcus lactis = assay: Disc agar diffusion assay; assay type: cell-based
Method: as §1

[5] = tested on: Serratia marcescens CO1-A; assay: Disc agar diffusion assay; assay type: cell-based; details: Group 1: Gram-negative organisms
Method: as §1

[6] = tested on: Serratia plymuthica ATCC 183; assay: Disc agar diffusion assay; assay type: cell-based; details: Group 1: Gram-negative organisms
Method: as §1

[7] = tested on: Serratia odorifera ATCC 53077; assay: Disc agar diffusion assay; assay type: cell-based; details: Group 1: Gram-negative organisms
Method: as §1

Enterococcus faecalis = assay: Disc agar diffusion assay; assay type: cell-based; details: Group 2: Gram-positive organisms
Method: as §1

[8] = tested on: Escherichia coli ATCC 25922; assay: Disc agar diffusion assay; assay type: cell-based; details: Group 1: Gram-negative organisms
Method: as §1

Escherichia coli K12413 = assay: Disc agar diffusion assay; assay type: cell-based; details: Group 1: Gram-negative organisms
Method: as §1

[9] = tested on: Serratia entomophila ATCC 43705; assay: Disc agar diffusion assay; assay type: cell-based; details: Group 1: Gram-negative organisms
Method: as §1

Deinoccus radiophilus = assay: Disc agar diffusion assay; assay type: cell-based; details: Group 2: Gram-positive organisms
Method: as §1

Micrococcus luteus = assay: Disc agar diffusion assay; assay type: cell-based
Method: as §1

[10] = tested on: Staphylococcus aureus T-5706; assay: Disc agar diffusion assay; assay type: cell-based
Method: as §1

[11] = tested on: Staphylococcus aureus SFL 8; assay: Disc agar diffusion assay; assay type: cell-based
Method: as §1

Serratia marcescens db11 = assay: Disc agar diffusion assay; assay type: cell-based; details: Group 1: Gram-negative organisms
Method: as §1

[12] = tested on: Pseudomonas aeruginosa ATCC 27853; assay: Disc agar diffusion assay; assay type: cell-based; details: Group 1: Gram-negative organisms
Method: as §1

[13] = tested on: Staphylococcus aureus ATCC 29213; assay: Disc agar diffusion assay; assay type: cell-based
Method: as §1

[14] = tested on: Staphylococcus epidermidis; assay: Disc agar diffusion assay; assay type: cell-based
Method: as §1

[15] = tested on: Serratia marcescens ATCC 13880; assay: Disc agar diffusion assay; assay type: cell-based; details: Group 1: Gram-negative organisms
Method: as §1

E. faecalis = assay: MIC and MBC values (Table 2); assay type: cell-based, Enterococcus faecalis; details: repeated determinations
[16] = Group 3: Gram-positive organisms
[17] = Group 2: Gram-positive organisms

COC(=O)c1cc2c(C#Cc3ccc(OCCC[N+](C)(C)C)cc3)c(OC)c(OC)c(C#Cc3ccc(OCCC[N+](C)(C)C)cc3)c2n1C [EIPE-1, 3,3′-((((5,6-dimethoxy-2-(methoxycarbonyl)-1-methyl-1H-indole-4,7-diyl)bis(ethyne-2,1-diyl))bis(4,1-phenylene))bis(oxy))bis(N,N,N-trimethylpropan-1-aminium) iodide]
susceptibility group in disc diffusion screen [1]: resistant | susceptibility group in disc diffusion screen [2]: resistant | susceptibility group in disc diffusion screen [3, 16]: susceptible | zone of inhibition at 25 µg/disc ([3]; Staphylococcus aureus, SFL64, S. aureus SFL 64, 25 μg per disk, zone minus disk diameter (6.0mm), read-out: Inhibition Zone Diameter (mm) ± SD): 2.5 ± 1.5 mm | zone of inhibition at 250 µg/disc ([3]; Staphylococcus aureus, SFL64, S. aureus SFL 64, 250 μg per disk, zone minus disk diameter (6.0mm), read-out: Inhibition Zone Diameter (mm) ± SD): 2.5 ± 0.2 mm | susceptibility group in disc diffusion screen (Serratia marcescens 8100): resistant | zone of inhibition at 25 µg/disc (Bacillus cereus; Bacillus cereus, B. cereus, 25 μg per disk, zone minus disk diameter (6.0mm), read-out: Inhibition Zone Diameter (mm) ± SD): 0 mm | susceptibility group in disc diffusion screen (Bacillus cereus; [17]): resistant | susceptibility group in disc diffusion screen [4]: resistant | susceptibility group in disc diffusion screen (Lactococcus lactis; [17]): resistant | zone of inhibition at 25 µg/disc (Lactococcus lactis; Lactococcus lactis, L. lactis, 25 μg per disk, zone minus disk diameter (6.0mm), read-out: Inhibition Zone Diameter (mm) ± SD): 0.4 ± 0.6 mm | susceptibility group in disc diffusion screen [5]: resistant | susceptibility group in disc diffusion screen [6]: resistant | susceptibility group in disc diffusion screen [7]: resistant | susceptibility group in disc diffusion screen (Enterococcus faecalis): resistant | susceptibility group in disc diffusion screen [8]: resistant | susceptibility group in disc diffusion screen (Escherichia coli K12413): resistant | susceptibility group in disc diffusion screen [9]: resistant | susceptibility group in disc diffusion screen (Deinoccus radiophilus): resistant | susceptibility group in disc diffusion screen (Micrococcus luteus; [17]): resistant | zone of inhibition at 25 µg/disc (Micrococcus luteus; Micrococcus luteus, M. luteus, 25 μg per disk, zone minus disk diameter (6.0mm), read-out: Inhibition Zone Diameter (mm) ± SD): 1 ± 1 mm | zone of inhibition at 250 µg/disc (Micrococcus luteus; Micrococcus luteus, M. luteus, 250 μg per disk, zone minus disk diameter (6.0mm), read-out: Inhibition Zone Diameter (mm) ± SD): 2.2 ± 1.9 mm | susceptibility group in disc diffusion screen [10, 16]: susceptible | zone of inhibition at 25 µg/disc ([10]; Staphylococcus aureus, T5706, S. aureus T-5706, 25 μg per disk, zone minus disk diameter (6.0mm), read-out: Inhibition Zone Diameter (mm) ± SD): 2.1 ± 0.3 mm | zone of inhibition at 250 µg/disc ([10]; Staphylococcus aureus, T5706, S. aureus T-5706, 250 μg per disk, zone minus disk diameter (6.0mm), read-out: Inhibition Zone Diameter (mm) ± SD): 2.2 ± 0.2 mm | susceptibility group in disc diffusion screen [11, 16]: susceptible | zone of inhibition at 25 µg/disc ([11]; Staphylococcus aureus, SFL8, S. aureus SFL 8, 25 μg per disk, zone minus disk diameter (6.0mm), read-out: Inhibition Zone Diameter (mm) ± SD): 2.4 ± 1.3 mm | zone of inhibition at 250 µg/disc ([11]; Staphylococcus aureus, SFL8, S. aureus SFL 8, 250 μg per disk, zone minus disk diameter (6.0mm), read-out: Inhibition Zone Diameter (mm) ± SD): 2.4 ± 0.3 mm | susceptibility group in disc diffusion screen (Serratia marcescens db11): resistant | susceptibility group in disc diffusion screen [12]: resistant | susceptibility group in disc diffusion screen [13, 16]: susceptible | zone of inhibition at 25 µg/disc ([13]; Staphylococcus aureus, ATCC29213, S. aureus ATCC 29213, 25 μg per disk, zone minus disk diameter (6.0mm), read-out: Inhibition Zone Diameter (mm) ± SD): 2.2 ± 0.6 mm | zone of inhibition at 250 µg/disc ([13]; Staphylococcus aureus, ATCC29213, S. aureus ATCC 29213, 250 μg per disk, zone minus disk diameter (6.0mm), read-out: Inhibition Zone Diameter (mm) ± SD): 2.9 ± 0.3 mm | susceptibility group in disc diffusion screen [14, 16]: susceptible | zone of inhibition at 25 µg/disc ([14]; Staphylococcus epidermidis, S. epidermidis, 25 μg per disk, zone minus disk diameter (6.0mm), read-out: Inhibition Zone Diameter (mm) ± SD): 2.6 ± 0.3 mm | zone of inhibition at 250 µg/disc ([14]; Staphylococcus epidermidis, S. epidermidis, 250 μg per disk, zone minus disk diameter (6.0mm), read-out: Inhibition Zone Diameter (mm) ± SD): 3.3 ± 0.5 mm | susceptibility group in disc diffusion screen [15]: resistant | MIC (E. faecalis; Enterococcus faecalis, read-out: MIC): 1 µg/mL | MIC (E. faecalis): 2.000 µg/mL
